Target: Fatty-acid amide hydrolase 1 (Rattus norvegicus) (UniProt P97612)
Assay: Inhibition of Wistar rat brain homogenate FAAH using [3H]AEA as substrate after 10 mins by liquid scintillation counting method

Fatty-acid amide hydrolase 1 (Rattus norvegicus), sequence (P97612 whole entry, looked up): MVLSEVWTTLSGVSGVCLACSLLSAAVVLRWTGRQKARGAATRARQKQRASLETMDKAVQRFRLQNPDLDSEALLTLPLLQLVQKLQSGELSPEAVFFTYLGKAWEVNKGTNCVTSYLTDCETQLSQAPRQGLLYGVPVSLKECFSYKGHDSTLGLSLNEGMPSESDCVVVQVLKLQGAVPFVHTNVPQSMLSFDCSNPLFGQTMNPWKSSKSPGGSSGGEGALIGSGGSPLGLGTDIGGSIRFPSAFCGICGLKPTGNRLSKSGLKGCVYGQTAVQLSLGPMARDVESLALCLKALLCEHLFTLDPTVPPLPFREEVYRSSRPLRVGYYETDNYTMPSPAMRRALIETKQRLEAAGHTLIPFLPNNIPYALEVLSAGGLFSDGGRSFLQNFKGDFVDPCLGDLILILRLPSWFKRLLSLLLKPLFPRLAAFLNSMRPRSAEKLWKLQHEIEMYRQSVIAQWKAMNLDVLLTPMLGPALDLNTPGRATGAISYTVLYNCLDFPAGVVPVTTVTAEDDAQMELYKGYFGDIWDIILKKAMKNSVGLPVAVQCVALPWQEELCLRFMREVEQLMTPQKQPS

COc1nn(-c2ccc(Oc3ccccc3)cc2C(F)(F)F)c(=O)o1
IC50: 230 nM
